In ChEMBL document CHEMBL1201861, “Genomics of Drug Sensitity in Cancer screening data, Wellcome Trust Sanger Institute”:

Key:
Experiment in all cases: cells
TE-8 = type: functional, cell-based, Homo sapiens; conditions: Homo sapiens, TE-8;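 also: growth inhibition of TE-8 cells, measured with a cell viability readout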
Description: SANGER: Inhibition of human TE-8 cell growth in a cell viability assay.

NCI-H1395 = type: functional, cell-based, Homo sapiens; conditions: Homo sapiens, NCI-H1395;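 also: cell viability assay read-out quantifying reduced proliferation of human NCI-H1395 cells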
Description: SANGER: Inhibition of human NCI-H1395 cell growth in a cell viability assay.

NMC-G1 = type: functional, cell-based, Homo sapiens; conditions: Homo sapiens, NMC-G1;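 also: growth inhibition of the NMC-G1 cell line, measured with a cell viability read-out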
Description: SANGER: Inhibition of human NMC-G1 cell growth in a cell viability assay.

EW-16 = type: functional, cell-based, Homo sapiens; conditions: Homo sapiens, EW-16;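 also: growth inhibition of human EW-16 cells, read out as cell viability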
Description: SANGER: Inhibition of human EW-16 cell growth in a cell viability assay.

KM-H2 = type: functional, cell-based, Homo sapiens; conditions: Homo sapiens, KM-H2;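 also: growth inhibition of KM-H2 cells, read out by a cell viability assay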
Description: SANGER: Inhibition of human KM-H2 cell growth in a cell viability assay.

NCI-H1581 = type: functional, cell-based, Homo sapiens; conditions: Homo sapiens, NCI-H1581;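 also: cell growth inhibition read out by a viability assay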
Description: SANGER: Inhibition of human NCI-H1581 cell growth in a cell viability assay.

CTB-1 = type: functional, cell-based, Homo sapiens; conditions: Homo sapiens, CTB-1
Description: SANGER: Inhibition of human CTB-1 cell growth in a cell viability assay.

RPMI-8226 = type: functional, cell-based, Homo sapiens; conditions: Homo sapiens, RPMI-8226
Description: SANGER: Inhibition of human RPMI-8226 cell growth in a cell viability assay.

COLO-800 = type: functional, cell-based, Homo sapiens; conditions: Homo sapiens, COLO-800;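 also: growth inhibition of COLO-800 cells, read out with a cell viability assay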
Description: SANGER: Inhibition of human COLO-800 cell growth in a cell viability assay.

OVCAR-4 = type: functional, cell-based, Homo sapiens; conditions: Homo sapiens, OVCAR-4;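 also: growth inhibition of human OVCAR-4 cells, measured with a cell viability assay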
Description: SANGER: Inhibition of human OVCAR-4 cell growth in a cell viability assay.

NCI-H69 = type: functional, cell-based, Homo sapiens; conditions: Homo sapiens, NCI-H69;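 also: growth inhibition of the cell line, read out with a cell viability assay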
Description: SANGER: Inhibition of human NCI-H69 cell growth in a cell viability assay.

LC-2-ad = type: functional, cell-based, Homo sapiens; conditions: Homo sapiens, LC-2-ad;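 also: growth inhibition of human LC-2-ad cells, read out with a cell viability assay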
Description: SANGER: Inhibition of human LC-2-ad cell growth in a cell viability assay.

NCI-H1648 = type: functional, cell-based, Homo sapiens; conditions: Homo sapiens, NCI-H1648;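 also: cell viability assay measuring inhibition of NCI-H1648 cell growth, from the Sanger screening data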
Description: SANGER: Inhibition of human NCI-H1648 cell growth in a cell viability assay.

SK-MEL-1 = type: functional, cell-based, Homo sapiens; conditions: Homo sapiens, SK-MEL-1;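 also: growth inhibition of human SK-MEL-1 cells, read out by a cell viability assay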
Description: SANGER: Inhibition of human SK-MEL-1 cell growth in a cell viability assay.

LAN-6 = type: functional, cell-based, Homo sapiens; conditions: Homo sapiens, LAN-6;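 also: growth inhibition of LAN-6 cells, determined with a cell viability assay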
Description: SANGER: Inhibition of human LAN-6 cell growth in a cell viability assay.

Lu-65 = type: functional, cell-based, Homo sapiens; conditions: Homo sapiens, Lu-65;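 also: growth inhibition of Lu-65 cancer cells, read out by a cell viability assay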
Description: SANGER: Inhibition of human LU-65 cell growth in a cell viability assay.

C8166 = type: functional, cell-based, Homo sapiens; conditions: Homo sapiens, C8166;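 also: growth inhibition of human C8166 cells measured by a cell viability assay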
Description: SANGER: Inhibition of human C8166 cell growth in a cell viability assay.

RS4-11 = type: functional, cell-based, Homo sapiens; conditions: Homo sapiens, RS4-11;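 also: growth inhibition of RS4-11 cells, read out by a cell viability assay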
Description: SANGER: Inhibition of human RS4-11 cell growth in a cell viability assay.

RCC10RGB = type: functional, cell-based, Homo sapiens; conditions: Homo sapiens, RCC10RGB;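 also: growth inhibition of human RCC10RGB cells, read out by a cell viability assay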
Description: SANGER: Inhibition of human RCC10RGB cell growth in a cell viability assay.

GI-ME-N = type: functional, cell-based, Homo sapiens; conditions: Homo sapiens, GI-ME-N;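 also: growth inhibition of human GI-ME-N cells, read out with a cell viability assay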
Description: SANGER: Inhibition of human GI-ME-N cell growth in a cell viability assay.

MN-60 = type: functional, cell-based, Homo sapiens; conditions: Homo sapiens, MN-60;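 also: growth inhibition of the MN-60 cell line, determined with a cell viability assay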
Description: SANGER: Inhibition of human MN-60 cell growth in a cell viability assay.

TGW = type: functional, cell-based, Homo sapiens; conditions: Homo sapiens, TGW;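 also: growth inhibition of human TGW cells, read out with a cell viability assay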
Description: SANGER: Inhibition of human TGW cell growth in a cell viability assay.

SCH = type: functional, cell-based, Homo sapiens; conditions: Homo sapiens, SCH;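 also: growth inhibition of human SCH cells, read out in a cell viability assay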
Description: SANGER: Inhibition of human SCH cell growth in a cell viability assay.

DB = type: functional, cell-based, Homo sapiens; conditions: Homo sapiens, DB
Description: SANGER: Inhibition of human DB cell growth in a cell viability assay.

SBC-1 = type: functional, cell-based, Homo sapiens; conditions: Homo sapiens, SBC-1;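 also: cell viability assay measuring growth inhibition of the SBC-1 cell line, IC50 being the concentration that halves growth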
Description: SANGER: Inhibition of human SBC-1 cell growth in a cell viability assay.

KS-1 = type: functional, cell-based; conditions: Homo sapiens;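 also: growth inhibition of KS-1 cells, read out with a cell viability assay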
Description: SANGER: Inhibition of human KS-1 cell growth in a cell viability assay.

LNCaP-Clone-FGC = type: functional, cell-based, Homo sapiens; conditions: Homo sapiens, LNCaP-Clone-FGC
Description: SANGER: Inhibition of human LNCaP-Clone-FGC cell growth in a cell viability assay.

no-11 = type: functional, cell-based, Homo sapiens; conditions: Homo sapiens;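 also: growth inhibition of human NO-11 cells, read out with a cell viability assay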
Description: SANGER: Inhibition of human no-11 cell growth in a cell viability assay.

SK-UT-1 = type: functional, cell-based, Homo sapiens; conditions: Homo sapiens, SK-UT-1;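 also: growth inhibition of SK-UT-1 cells, measured by a cell viability assay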
Description: SANGER: Inhibition of human SK-UT-1 cell growth in a cell viability assay.

NCI-H1092 = type: functional, cell-based, Homo sapiens; conditions: Homo sapiens, NCI-H1092;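 also: cell growth inhibition measured with a cell viability assay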
Description: SANGER: Inhibition of human NCI-H1092 cell growth in a cell viability assay.

HD-MY-Z = type: functional, cell-based, Homo sapiens; conditions: Homo sapiens, HD-MY-Z;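 also: growth inhibition of HD-MY-Z cells, read out with a cell viability assay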
Description: SANGER: Inhibition of human HD-MY-Z cell growth in a cell viability assay.

GOTO = type: functional, cell-based, Homo sapiens; conditions: Homo sapiens, GOTO;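 also: growth inhibition of GOTO cells, read out by a cell viability assay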
Description: SANGER: Inhibition of human GOTO cell growth in a cell viability assay.

KURAMOCHI = type: functional, cell-based, Homo sapiens; conditions: Homo sapiens, KURAMOCHI;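 also: growth inhibition of KURAMOCHI cells, read out with a cell viability assay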
Description: SANGER: Inhibition of human KURAMOCHI cell growth in a cell viability assay.

NB10 = type: functional, cell-based, Homo sapiens; conditions: Homo sapiens, NB10;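 also: growth inhibition of NB10 cells, read out by a cell viability assay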
Description: SANGER: Inhibition of human NB10 cell growth in a cell viability assay.

HEL = type: functional, cell-based, Homo sapiens; conditions: Homo sapiens, HEL;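 also: growth inhibition of HEL cells, read out with a cell viability assay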
Description: SANGER: Inhibition of human HEL cell growth in a cell viability assay.

IST-SL1 = type: functional, cell-based, Homo sapiens; conditions: Homo sapiens, IST-SL1;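 also: growth inhibition of human IST-SL1 cells, read out with a cell viability assay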
Description: SANGER: Inhibition of human IST-SL1 cell growth in a cell viability assay.

MOLT-16 = type: functional, cell-based, Homo sapiens; conditions: Homo sapiens, MOLT-16;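 also: growth inhibition of human MOLT-16 cells, read out with a cell viability assay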
Description: SANGER: Inhibition of human MOLT-16 cell growth in a cell viability assay.

HAL-01 = type: functional, cell-based, Homo sapiens; conditions: Homo sapiens, HAL-01;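 also: growth inhibition of human HAL-01 cells, read out with a cell viability assay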
Description: SANGER: Inhibition of human HAL-01 cell growth in a cell viability assay.

NCI-H23 = type: functional, cell-based, Homo sapiens; conditions: Homo sapiens, NCI-H23;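 also: cell viability assay measuring growth inhibition of NCI-H23 cells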
Description: SANGER: Inhibition of human NCI-H23 cell growth in a cell viability assay.

COLO-829 = type: functional, cell-based, Homo sapiens; conditions: Homo sapiens, COLO-829
Description: SANGER: Inhibition of human COLO-829 cell growth in a cell viability assay.

GT3TKB = type: functional, cell-based, Homo sapiens; conditions: Homo sapiens, GT3TKB;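 also: growth inhibition of the cell line, read out with a cell viability assay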
Description: SANGER: Inhibition of human GT3TKB cell growth in a cell viability assay.

ONS-76 = type: functional, cell-based, Homo sapiens; conditions: Homo sapiens, ONS-76;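 also: growth inhibition of human ONS-76 cells, read out with a cell viability assay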
Description: SANGER: Inhibition of human ONS-76 cell growth in a cell viability assay.

ALL-PO = type: functional, cell-based, Homo sapiens; conditions: Homo sapiens, ALL-PO;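 also: growth inhibition of ALL-PO cells, read out by a cell viability assay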
Description: SANGER: Inhibition of human ALL-PO cell growth in a cell viability assay.

NKM-1 = type: functional, cell-based, Homo sapiens; conditions: Homo sapiens, NKM-1;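 also: growth inhibition of NKM-1 cells, read out with a cell viability assay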
Description: SANGER: Inhibition of human NKM-1 cell growth in a cell viability assay.

NCI-H1838 = type: functional, cell-based, Homo sapiens; conditions: Homo sapiens, NCI-H1838;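 also: growth inhibition of NCI-H1838 cells, determined with a cell viability readout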
Description: SANGER: Inhibition of human NCI-H1838 cell growth in a cell viability assay.

KALS-1 = type: functional, cell-based, Homo sapiens; conditions: Homo sapiens, KALS-1; read-out: IC50;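 also: growth inhibition of KALS-1 cells, determined with a cell viability assay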
Description: SANGER: Inhibition of human KALS-1 cell growth in a cell viability assay.

ATN-1 = type: functional, cell-based, Homo sapiens; conditions: Homo sapiens, ATN-1;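 also: growth inhibition of human ATN-1 cells, read out with a cell viability assay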
Description: SANGER: Inhibition of human ATN-1 cell growth in a cell viability assay.

LXF-289 cell line = type: functional, cell-based; conditions: Homo sapiens
Description: SANGER: Inhibition of human LXF-289 cell growth in a cell viability assay.

NB5 = type: functional, cell-based, Homo sapiens; conditions: Homo sapiens, NB5;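 also: growth inhibition of NB5 cells, read out as cell viability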
Description: SANGER: Inhibition of human NB5 cell growth in a cell viability assay.

Compound: Cc1ccc(-n2nc(C(C)(C)C)cc2NC(=O)Nc2ccc(OCCN3CCOCC3)c3ccccc23)cc1 [DORAMAPIMOD]
- IC50 (TE-8): > 10 µM
- IC50 (NCI-H1395): > 10 µM
- IC50 (NMC-G1): > 10 µM
- IC50 (EW-16): > 10 µM
- IC50 (KM-H2): > 10 µM
- IC50 (NCI-H1581): > 10 µM
- IC50 (CTB-1): > 10 µM
- IC50 (RPMI-8226): > 10 µM
- IC50 (COLO-800): > 10 µM
- IC50 (OVCAR-4): > 10 µM
- IC50 (NCI-H69): > 10 µM
- IC50 (LC-2-ad): > 10 µM
- IC50 (NCI-H1648): > 10 µM
- IC50 (SK-MEL-1): > 10 µM
- IC50 (LAN-6): > 10 µM
- IC50 (Lu-65): > 10 µM
- IC50 (C8166): > 10 µM
- IC50 (RS4-11): > 10 µM
- IC50 (RCC10RGB): > 10 µM
- IC50 (GI-ME-N): > 10 µM
- IC50 (MN-60): > 10 µM
- IC50 (TGW): > 10 µM
- IC50 (SCH): > 10 µM
- IC50 (DB): > 10 µM
- IC50 (SBC-1): > 10 µM
- IC50 (KS-1): > 10 µM
- IC50 (LNCaP-Clone-FGC): > 10 µM
- IC50 (no-11): > 10 µM
- IC50 (SK-UT-1): > 10 µM
- IC50 (NCI-H1092): > 10 µM
- IC50 (HD-MY-Z): > 10 µM
- IC50 (GOTO): 6.39 µM
- IC50 (KURAMOCHI): > 10 µM
- IC50 (NB10): > 10 µM
- IC50 (HEL): > 10 µM
- IC50 (IST-SL1): > 10 µM
- IC50 (MOLT-16): > 10 µM
- IC50 (HAL-01): > 10 µM
- IC50 (NCI-H23): > 10 µM
- IC50 (COLO-829): > 10 µM
- IC50 (GT3TKB): > 10 µM
- IC50 (ONS-76): > 10 µM
- IC50 (ALL-PO): > 10 µM
- IC50 (NKM-1): > 10 µM
- IC50 (NCI-H1838): > 10 µM
- IC50 (KALS-1): > 10 µM
- IC50 (ATN-1): > 10 µM
- IC50 (LXF-289 cell line): > 10 µM
- IC50 (NB5): > 10 µM

Compound: COC(=O)[C@H](CCSC)NC(=O)c1ccc(NC[C@@H](N)CS)cc1-c1ccccc1
- IC50 (TE-8): > 1.02 µM
- IC50 (NCI-H1395): > 1.02 µM
- IC50 (NMC-G1): > 1.02 µM
- IC50 (EW-16): > 1.02 µM
- IC50 (KM-H2): > 1.02 µM
- IC50 (NCI-H1581): > 1.02 µM
- IC50 (CTB-1): > 1.02 µM
- IC50 (RPMI-8226): > 1.02 µM
- IC50 (COLO-800): > 1.02 µM
- IC50 (OVCAR-4): > 1.02 µM
- IC50 (NCI-H69): > 1.02 µM
- IC50 (LC-2-ad): > 1.02 µM
- IC50 (NCI-H1648): > 1.02 µM
- IC50 (SK-MEL-1): > 1.02 µM
- IC50 (LAN-6): > 1.02 µM
- IC50 (Lu-65): > 1.02 µM
- IC50 (C8166): > 1.02 µM
- IC50 (RS4-11): > 1.02 µM
- IC50 (RCC10RGB): > 1.02 µM
- IC50 (GI-ME-N): > 1.02 µM
- IC50 (MN-60): > 1.02 µM
- IC50 (TGW): > 1.02 µM
- IC50 (SCH): > 1.02 µM
- IC50 (DB): > 1.02 µM
- IC50 (SBC-1): > 1.02 µM
- IC50 (KS-1): > 1.02 µM
- IC50 (LNCaP-Clone-FGC): > 1.02 µM
- IC50 (no-11): > 1.02 µM
- IC50 (SK-UT-1): > 1.02 µM
- IC50 (NCI-H1092): > 1.02 µM
- IC50 (HD-MY-Z): > 1.02 µM
- IC50 (GOTO): > 1.02 µM
- IC50 (KURAMOCHI): > 1.02 µM
- IC50 (NB10): > 1.02 µM
- IC50 (HEL): > 1.02 µM
- IC50 (IST-SL1): > 1.02 µM
- IC50 (MOLT-16): > 1.02 µM
- IC50 (HAL-01): > 1.02 µM
- IC50 (NCI-H23): > 1.02 µM
- IC50 (COLO-829): > 1.02 µM
- IC50 (GT3TKB): > 1.02 µM
- IC50 (ONS-76): 0.838 µM
- IC50 (ALL-PO): > 1.02 µM
- IC50 (NKM-1): > 1.02 µM
- IC50 (NCI-H1838): > 1.02 µM
- IC50 (KALS-1): > 1.02 µM
- IC50 (ATN-1): > 1.02 µM
- IC50 (LXF-289 cell line): > 1.02 µM
- IC50 (NB5): > 1.02 µM
